In ChEMBL document CHEMBL1201862, “PubChem BioAssay data set” (2004) one finds EC50, IC50 and AC50 data, which are given here for four compounds.

Activity calls are given as the source filed them. Where only a bound is given, the exact number is not on record here.

Test [1] is described as follows: NIH3T3 cell viability loss – ATP luminescence, mouse fibroblasts, counter-screen, dose response (AID 2010).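 Further: cells exposed to compound for about 90 hours before reading.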 It counts as functional, cell-based.
In test [2] the target is T1, Coagulation factor XII (Homo sapiens, UniProt P00748).
T1 sequence (P00748 whole entry): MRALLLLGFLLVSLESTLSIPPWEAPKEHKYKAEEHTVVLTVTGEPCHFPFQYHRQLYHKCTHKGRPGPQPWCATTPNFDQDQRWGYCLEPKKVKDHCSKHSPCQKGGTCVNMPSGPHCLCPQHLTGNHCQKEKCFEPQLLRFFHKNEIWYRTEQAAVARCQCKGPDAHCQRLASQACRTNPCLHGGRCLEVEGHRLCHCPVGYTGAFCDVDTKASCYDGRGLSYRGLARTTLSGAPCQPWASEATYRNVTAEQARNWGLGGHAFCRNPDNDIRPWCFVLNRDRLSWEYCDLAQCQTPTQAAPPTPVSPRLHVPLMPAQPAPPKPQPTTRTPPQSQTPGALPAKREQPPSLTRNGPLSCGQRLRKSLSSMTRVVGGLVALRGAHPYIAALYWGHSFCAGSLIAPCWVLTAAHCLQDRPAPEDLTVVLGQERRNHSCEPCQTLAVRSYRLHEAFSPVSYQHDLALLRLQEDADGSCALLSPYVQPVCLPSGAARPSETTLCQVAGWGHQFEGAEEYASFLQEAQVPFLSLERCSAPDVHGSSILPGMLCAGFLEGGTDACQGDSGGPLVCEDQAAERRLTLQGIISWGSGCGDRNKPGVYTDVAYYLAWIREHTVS
The experiment in a line: activated coagulation factor XII inhibitor potency, concentration-effect curve, cell-free (AID 716). Type of test: functional.

The target of another test is T2, CAAX prenyl protease 2 (Saccharomyces cerevisiae S288c, UniProt Q03530).
T2 sequence (Q03530 whole entry): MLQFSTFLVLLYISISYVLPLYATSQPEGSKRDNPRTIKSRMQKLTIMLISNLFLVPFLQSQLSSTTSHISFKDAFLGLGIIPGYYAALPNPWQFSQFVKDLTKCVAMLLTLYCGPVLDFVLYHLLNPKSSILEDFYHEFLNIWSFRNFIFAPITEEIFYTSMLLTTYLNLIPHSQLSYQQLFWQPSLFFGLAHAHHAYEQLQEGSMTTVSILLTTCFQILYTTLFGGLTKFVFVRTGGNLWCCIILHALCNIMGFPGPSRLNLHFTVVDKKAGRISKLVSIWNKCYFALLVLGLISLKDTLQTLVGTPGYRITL
It counts as biochemical.

Test [3] is described as follows: Trypanosoma cruzi growth suppression in host cells – NIH3T3 host cells, beta-gal luminescence, confirmation (AID 2044).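 Further: intracellular parasites grown in NIH/3T3 mouse fibroblasts as host cells; luminescent beta-galactosidase reporter signal from transgenic T. cruzi replicating inside host cells; inhibitors lower the luminescence signal.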 It counts as functional, cell-based.
The target in another test is Trypsin (Sus scrofa, UniProt P00761). The experiment in a line: trypsin protease activity blockade – biochemical, quenched peptide fluorescence, cherry-pick, selectivity assay for Rce1 protease inhibitor project, dose response (AID 488789).
Sequence of Trypsin (P00761 whole entry): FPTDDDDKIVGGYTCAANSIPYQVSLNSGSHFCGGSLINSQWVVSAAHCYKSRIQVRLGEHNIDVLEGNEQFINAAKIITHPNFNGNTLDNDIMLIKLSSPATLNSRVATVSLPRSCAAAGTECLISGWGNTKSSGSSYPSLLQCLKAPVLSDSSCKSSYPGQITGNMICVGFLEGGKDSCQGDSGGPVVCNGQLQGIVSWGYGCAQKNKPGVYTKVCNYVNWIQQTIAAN
In test [4] the target is Dual specificity protein phosphatase 3 (Homo sapiens, UniProt P51452). The experiment in a line: SAR VHR1 Fluorescent Assay for In Vitro dose response studies Set 2. [Related pubchem assays (depositor defined):AID1654, AID1661, AID1878]. It counts as functional.
Sequence of Dual specificity protein phosphatase 3 (P51452 whole entry): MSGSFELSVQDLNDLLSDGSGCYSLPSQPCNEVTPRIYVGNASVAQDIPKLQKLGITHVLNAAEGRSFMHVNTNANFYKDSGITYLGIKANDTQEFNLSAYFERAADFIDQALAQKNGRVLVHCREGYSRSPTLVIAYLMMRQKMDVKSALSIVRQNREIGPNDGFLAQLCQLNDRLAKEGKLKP
Test [5] deals with T3, Tyrosine-protein phosphatase non-receptor type 7 (Homo sapiens, UniProt P35236).
T3 sequence (P35236 whole entry): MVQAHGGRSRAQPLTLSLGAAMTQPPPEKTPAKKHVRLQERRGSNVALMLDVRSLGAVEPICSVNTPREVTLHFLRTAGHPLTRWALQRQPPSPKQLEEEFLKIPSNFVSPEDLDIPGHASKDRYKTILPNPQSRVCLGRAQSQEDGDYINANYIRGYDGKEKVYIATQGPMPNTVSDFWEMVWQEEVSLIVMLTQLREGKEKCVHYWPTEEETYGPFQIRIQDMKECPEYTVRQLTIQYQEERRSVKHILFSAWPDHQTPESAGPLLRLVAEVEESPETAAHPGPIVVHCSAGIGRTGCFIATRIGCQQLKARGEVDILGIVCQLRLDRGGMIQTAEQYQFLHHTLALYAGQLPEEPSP
The experiment in a line: SAR analysis of chemical inhibitors of HePTP using a Fluorescent assay - Set 2. [Related pubchem assays (depositor defined):AID1059, AID1077, AID1661, AID2085, AID521]. It counts as functional.

The target in test [6] is T1, Coagulation factor XII. The experiment in a line: Factor XIIa Dose Response Confirmation from Single Well HTS. [Related pubchem assays (depositor defined):AID701]. Type of test: functional.
For test [7], the target named is Sphingosine 1-phosphate receptor 4 (Homo sapiens, UniProt O95977). The experiment in a line: Late-stage fluorescence dose response cell-based assay to identify agonists of the Sphingosine 1-Phosphate Receptor 4 (S1P4): purchased compounds EC50. [Related pubchem assays (depositor defined):AID1509, AID1523, AID1563, AID1686, AID1701, AID1801]. It counts as functional.
Sequence of Sphingosine 1-phosphate receptor 4 (O95977 whole entry): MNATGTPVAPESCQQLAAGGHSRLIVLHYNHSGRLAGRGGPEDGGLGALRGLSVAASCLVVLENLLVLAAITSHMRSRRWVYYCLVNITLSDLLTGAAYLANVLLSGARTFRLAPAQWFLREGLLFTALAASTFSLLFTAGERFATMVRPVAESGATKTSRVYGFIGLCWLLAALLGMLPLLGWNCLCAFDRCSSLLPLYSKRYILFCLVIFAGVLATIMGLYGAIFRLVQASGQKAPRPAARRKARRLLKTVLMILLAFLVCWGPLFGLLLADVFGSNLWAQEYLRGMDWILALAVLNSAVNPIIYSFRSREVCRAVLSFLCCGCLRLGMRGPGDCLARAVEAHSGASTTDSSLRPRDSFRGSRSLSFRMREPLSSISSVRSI

The EC50 is the midpoint of the concentration-response curve. A word on the IC50: it is the concentration at which inhibition is half-maximal. For orientation: AC50 means the concentration at which the activity in the assay is half-maximal.

For `COc1ccc(C)cc1NC(=O)CCC(=O)Nc1ccc2nc(N3CCN(C)CC3)cc(C)c2c1`, the values for the EC50 in test [1] and in [3] were 8.73 µM (active) and 0.635 µM (active), respectively. Also, on Coagulation factor XII [2], the IC50 is > 50 µM (inactive). Also, the concentration at half-maximal activity (AC50) is 16.4 µM (active) on CAAX prenyl protease 2 and 19.7 µM (active) on Trypsin.
Regarding `COc1cc(C(=S)NCc2ccc(F)cc2)ccc1O`, the IC50 in test [4] is 99.5 µM (inactive); in [5] it was > 100 µM (inactive).
As to `CC1(C)c2ssc(=S)c2-c2ccccc2N1C(=O)c1ccco1`, on Coagulation factor XII [6], the IC50 is > 50 µM (inactive).
Consider `Cc1nn(Cc2ccccc2)c(Cl)c1C(=O)OC(C)C(=O)Nc1nc(-c2ccccc2)cs1` (centres undefined), for which the EC50 in test [7] was > 50 µM (inactive).
